Converted amounts (≈) assume the structure as drawn. Square brackets hold non-standard residues; d marks the D form. Peptide text beside a SMILES is read from it. * marks the point of attachment. Myristoyl = CCCCCCCCCCCCCC(=O)*; Orn = NCCC[C@H](N)C(=O)O
Tests used:
Test in all cases: microbe, parasite or virus in culture
[1] = test system: A. fumigatus AF293; assay type: cell-based, Aspergillus fumigatus; details: AF293, 48 h
Description: (§1) All microdilution assays with fungi were carried out in accordance with CLSI protocols from M27 for yeasts and M38 for filamentous fungi, respectively, unless otherwise specified.[64],[65] Briefly, 96-well plates were charged with RPMI1640 media, with operating volume in the first column, 200 μL, and half operating volume, 100 μL, in the remaining wells. Drug stock solution in DMSO was aliquoted into the first well in each row. Half of the volume in the dosed well was serially diluted 2-fold until column 11. Column 11 was used as the negative growth control, and column 12 was used as the positive growth control. ON yeast cultures in YPD were washed twice in DD-H2O, resuspended in PBS, and adjusted to 5000 cfu/mL in RPMI. The 96-well plate was inoculated with 100 μL aliquots of cell suspension per well. Plates were incubated at 37 °C for 2 days.

[2] = test system: C. albicans SC5413; assay type: cell-based, Candida albicans
Description: as §1

[3] = test system: C. neoformans apt2Δ; assay type: cell-based, Cryptococcus neoformans; details: compound alone; RPMI1640, 37 °C, 48 h
Description: as §1

[4] = test system: C. neoformans crm1Δ; assay type: cell-based, Cryptococcus neoformans; details: compound alone; RPMI1640, 37 °C, 48 h
Description: as §1

[5] = test system: C. neoformans apt1Δ; assay type: cell-based, Cryptococcus neoformans; details: compound alone; RPMI1640, 37 °C, 48 h
Description: as §1

[6] = test system: C. neoformans cdc50Δ; assay type: cell-based, Cryptococcus neoformans
Description: as §1

[7] = test system: C. neoformans apt4Δ; assay type: cell-based, Cryptococcus neoformans; details: compound alone; RPMI1640, 37 °C, 48 h
Description: as §1

[8] = test system: C. neoformans Crm1^OE; assay type: cell-based, Cryptococcus neoformans; details: compound alone; RPMI1640, 37 °C, 48 h
Description: as §1

[9] = test system: C. neoformans apt3Δ; assay type: cell-based, Cryptococcus neoformans; details: compound alone; RPMI1640, 37 °C, 48 h
Description: as §1

[10] = test system: C. neoformans MRL862; assay type: cell-based, Cryptococcus neoformans; details: MRL862, 48 h
Description: as §1

[11] = test system: C. neoformans H99; assay type: cell-based, Cryptococcus neoformans
Description: as §1

[12] = test system: C. glabrata FKS2-S663P; assay type: cell-based, Candida glabrata; details: compound alone; RPMI1640, 37 °C, 48 h
Description: as §1

[13] = test system: C. glabrata 2001; assay type: cell-based, Candida glabrata
Description: as §1

[14] = test system: C. glabrata FKS1-S629P; assay type: cell-based, Candida glabrata; details: compound alone; RPMI1640, 37 °C, 48 h
Description: as §1

[15] = Table S1, unit and conditions not given (MICs elsewhere in μg/mL)

CCCCCCCCCCCCCC(=O)N[C@@H](Cc1c[nH]c2ccccc12)C(=O)NCC(=O)NCC(=O)N[C@H](C(=O)N[C@@H](CCCN)C(=O)N[C@@H](CCCN)C(=O)N[C@@H](CC(N)=O)C(=O)N[C@@H](Cc1ccc(O)cc1)C(=O)N[C@@H](C)C(N)=O)[C@@H](C)CC [KKOO-NH2] (Myristoyl-WGGI[Orn][Orn]NYA-NH2)
MIC [1]: 32 µg/mL (≈ 26.3 µM) | MIC ([2]; SC5413, 48 h): 16 µg/mL (≈ 13.1 µM) | MIC (SAR screen peptides) [2, 15]: 16 | MIC [3]: 4 µg/mL (≈ 3.29 µM) | MIC [4]: 4 µg/mL (≈ 3.29 µM) | MIC [5]: 4 µg/mL (≈ 3.29 µM) | MIC (SAR screen peptides) [6, 15]: 4 | MIC ([6]; compound alone, RPMI1640, 37 °C, 48 h): 4 µg/mL (≈ 3.29 µM) | MIC [7]: 4 µg/mL (≈ 3.29 µM) | MIC [8]: 4 µg/mL (≈ 3.29 µM) | MIC [9]: 4 µg/mL (≈ 3.29 µM) | MIC [10]: 8 µg/mL (≈ 6.57 µM) | MIC ([11]; H99, 48 h): 8 µg/mL (≈ 6.57 µM) | MIC (SAR screen peptides) [11, 15]: 8 | MIC [12]: 8 µg/mL (≈ 6.57 µM) | MIC ([13]; 2001, 48 h): 8 µg/mL (≈ 6.57 µM) | MIC (SAR screen peptides) [13, 15]: 8 | MIC [14]: 8 µg/mL (≈ 6.57 µM)

— publication PMC11555678, “Improved Broad Spectrum Antifungal Drug Synergies with Cryptomycin, a Cdc50-Inspired Antifungal Peptide” (ACS Infectious Diseases, 2024)
